# Test results reported in patent US6753345B2, “7-hexanolytaxol and methods for preparing the same” (Hauser, Inc., priority 1998, dated 2004).
# Tests used:
# MOLT-4 = assay: SRB cytotoxicity screening assay (Leukemia)
# CCRF-CEM = assay: SRB cytotoxicity screening assay (Leukemia); conditions: for Log10 TGI: PG=0
# HCT-116 = assay: SRB cytotoxicity screening assay (Colon Cancer)
# SF-539 = assay: SRB cytotoxicity screening assay (CNS Cancer)
# KM12 = assay: SRB cytotoxicity screening assay (Colon Cancer)
# UACC-62 = assay: SRB cytotoxicity screening assay (Melanoma)
# 786-0 = assay: SRB cytotoxicity screening assay (Renal Cancer)
# SNB-19 = assay: SRB cytotoxicity screening assay (CNS Cancer)
# NCI-H460 = assay: SRB cytotoxicity screening assay (Non-Small Cell Lung Cancer)
# LOX-IMVI = assay: cells; conditions: Homo sapiens, 48 h, read-out: Log10 LC50 (converted)
# MDA-N = assay: SRB cytotoxicity screening assay (Breast Cancer)
# K-562 = assay: SRB cytotoxicity screening assay (Leukemia)
# SN12C = assay: SRB cytotoxicity screening assay (Renal Cancer)
# IGR-OV1 = assay: SRB cytotoxicity screening assay (Ovarian)
# PC-3 = assay: SRB cytotoxicity screening assay (Prostate Cancer)
# [1] = tested on: cell line panel (60 lines, nine disease-related subpanels); assay: SRB cytotoxicity screening assay, whole cell line panel (mean values)
# MCF7/ADR-RES = assay: SRB cytotoxicity screening assay (Breast Cancer)
# A498 = assay: SRB cytotoxicity screening assay (Renal Cancer)
# HL-60(TB) = assay: cells; conditions: Homo sapiens, HL-60, 48 h
# SW-620 = assay: SRB cytotoxicity screening assay (Colon Cancer)
# COLO 205 = assay: SRB cytotoxicity screening assay (Colon Cancer)
# OVCAR-4 = assay: SRB cytotoxicity screening assay (Ovarian)
# MDA-MB-231/ATCC = assay: SRB cytotoxicity screening assay (Breast Cancer)
# HT29 = assay: SRB cytotoxicity screening assay (Colon Cancer)
# [2] = mean value over the cell line panel
structure (smiles),measurement,setting,value
CCCCCC(=O)O[C@H]1C[C@H]2OC[C@@]2(OC(C)=O)[C@H]2[C@H](OC(=O)c3ccccc3)[C@]3(O)C[C@H](OC(=O)[C@H](O)[C@@H](NC(=O)c4ccccc4)c4ccccc4)C(C)=C([C@@H](OC(C)=O)C(=O)[C@]12C)C3(C)C [7-hexanoyltaxol],GI50,"MOLT-4; Homo sapiens, MOLT-4, 48 h, read-out: Log10 GI50 (converted)",< 0.01 µM
same,CC50,"MOLT-4; Homo sapiens, MOLT-4, 48 h, read-out: Log10 LC50 (converted)",> 100 µM
same,Log10 TGI,"MOLT-4; MOLT-4 (Leukemia), PG=0, 48 hour incubation",−4.69 molar
same,Log10 TGI,"CCRF-CEM; CCRF-CEM (Leukemia), 48 hour incubation",−6.1 molar
same,Log10 TGI,"CCRF-CEM; CCRF-CEM (Leukemia), 48 hour incubation, listed as 7-Hexanoyltaxol",<−8.00 molar
same,Log10 LC50,"CCRF-CEM; CCRF-CEM (Leukemia), PG=−50, 48 hour incubation",>−4.00 molar
same,GI50,"CCRF-CEM; Homo sapiens, CCRF-CEM, 48 h, read-out: Log10 GI50 (converted)",< 0.01 µM
same,CC50,"CCRF-CEM; Homo sapiens, CCRF-CEM, 48 h, read-out: Log10 LC50 (converted)",> 100 µM
same,IC50,"CCRF-CEM; Homo sapiens, CCRF-CEM, read-out: concentration necessary to achieve primary growth inhibition (percentage growth +50)",~0.1 µM
same,Log10 TGI,"HCT-116; HCT-116 (Colon Cancer), PG=0, 48 hour incubation",−4.94 molar
same,GI50,"HCT-116; Homo sapiens, HCT-116, 48 h, read-out: Log10 GI50 (converted)",< 0.01 µM
same,CC50,"HCT-116; Homo sapiens, HCT-116, 48 h, read-out: Log10 LC50 (converted)",> 100 µM
same,GI50,"SF-539; Homo sapiens, SF-539, 48 h, read-out: Log10 GI50 (converted)",< 0.01 µM
same,CC50,"SF-539; Homo sapiens, SF-539, 48 h, read-out: Log10 LC50 (converted)",1.51 µM
same,Log10 TGI,"SF-539; SF-539 (CNS Cancer), PG=0, 48 hour incubation",−7.32 molar
same,GI50,"KM12; Homo sapiens, KM12, 48 h, read-out: Log10 GI50 (converted)",< 0.01 µM
same,CC50,"KM12; Homo sapiens, KM12, 48 h, read-out: Log10 LC50 (converted)",> 100 µM
same,Log10 TGI,"KM12; KM12 (Colon Cancer), PG=0, 48 hour incubation",−4.90 molar
same,GI50,"UACC-62; Homo sapiens, UACC-62, 48 h, read-out: Log10 GI50 (converted)",< 0.01 µM
same,CC50,"UACC-62; Homo sapiens, UACC-62, 48 h, read-out: Log10 LC50 (converted)",> 100 µM
same,Log10 TGI,"UACC-62; UACC-62 (Melanoma), PG=0, 48 hour incubation",−4.78 molar
same,Log10 TGI,"786-0; 786-0 (Renal Cancer), PG=0, 48 hour incubation",−4.88 molar
same,GI50,"786-0; Homo sapiens, 786-0, 48 h, read-out: Log10 GI50 (converted)",< 0.01 µM
same,CC50,"786-0; Homo sapiens, 786-0, 48 h, read-out: Log10 LC50 (converted)",36.3 µM
same,GI50,"SNB-19; Homo sapiens, SNB-19, 48 h, read-out: Log10 GI50 (converted)",0.0102 µM
same,CC50,"SNB-19; Homo sapiens, SNB-19, 48 h, read-out: Log10 LC50 (converted)",> 100 µM
same,Log10 TGI,"SNB-19; SNB-19 (CNS Cancer), PG=0, 48 hour incubation",−4.53 molar
same,GI50,"NCI-H460; Homo sapiens, NCI-H460, 48 h, read-out: Log10 GI50 (converted)",< 0.01 µM
same,CC50,"NCI-H460; Homo sapiens, NCI-H460, 48 h, read-out: Log10 LC50 (converted)",> 100 µM
same,Log10 TGI,"NCI-H460; NCI-H460 (Non-Small Cell Lung Cancer), PG=0, 48 hour incubation",−4.75 molar
same,CC50,LOX-IMVI,57.5 µM
same,GI50,"MDA-N; Homo sapiens, MDA-N, 48 h, read-out: Log10 GI50 (converted)",< 0.01 µM
same,CC50,"MDA-N; Homo sapiens, MDA-N, 48 h, read-out: Log10 LC50 (converted)",< 0.01 µM
same,Log10 TGI,"MDA-N; MDA-N (Breast Cancer), PG=0, 48 hour incubation",<−8.00 molar
same,GI50,"K-562; Homo sapiens, K562, 48 h, read-out: Log10 GI50 (converted)",< 0.01 µM
same,CC50,"K-562; Homo sapiens, K562, 48 h, read-out: Log10 LC50 (converted)",> 100 µM
same,Log10 TGI,"K-562; K-562 (Leukemia), PG=0, 48 hour incubation",−7.05 molar
same,GI50,"SN12C; Homo sapiens, SN12C, 48 h, read-out: Log10 GI50 (converted)",< 0.01 µM
same,CC50,"SN12C; Homo sapiens, SN12C, 48 h, read-out: Log10 LC50 (converted)",> 100 µM
same,Log10 TGI,"SN12C; SN12C (Renal Cancer), PG=0, 48 hour incubation",>−4.00 molar
same,GI50,"IGR-OV1; Homo sapiens, IGROV-1, 48 h, read-out: Log10 GI50 (converted)",< 0.01 µM
same,CC50,"IGR-OV1; Homo sapiens, IGROV-1, 48 h, read-out: Log10 LC50 (converted)",> 100 µM
same,Log10 TGI,"IGR-OV1; IGR-OV1 (Ovarian), PG=0, 48 hour incubation",−4.52 molar
same,GI50,"PC-3; Homo sapiens, PC-3, 48 h, read-out: Log10 GI50 (converted)",< 0.01 µM
same,CC50,"PC-3; Homo sapiens, PC-3, 48 h, read-out: Log10 LC50 (converted)",> 100 µM
same,Log10 TGI,"PC-3; PC-3 (Prostate Cancer), PG=0, 48 hour incubation",−5.48 molar
same,potency compared with paclitaxel,"[1]; cancer cell line panel, Table I",in most instances is as potent and in some instances more potent than paclitaxel
same,"Log10 GI50, MG_MID",[1]; [2],−7.79 molar
same,"Log10 LC50, MG_MID",[1]; [2],−4.32 molar
same,"Log10 TGI, MG_MID",[1]; [2],−5.59 molar
same,GI50,"MCF7/ADR-RES; Homo sapiens, MCF7, 48 h, read-out: Log10 GI50 (converted)",1.12 µM
same,CC50,"MCF7/ADR-RES; Homo sapiens, MCF7, 48 h, read-out: Log10 LC50 (converted)",> 100 µM
same,Log10 TGI,"MCF7/ADR-RES; MCF7/ADR-RES (Breast Cancer), PG=0, 48 hour incubation",−4.80 molar
same,Log10 TGI,"A498; A498 (Renal Cancer), PG=0, 48 hour incubation",−7.29 molar
same,GI50,"A498; Homo sapiens, A498, 48 h, read-out: Log10 GI50 (converted)",< 0.01 µM
same,CC50,"A498; Homo sapiens, A498, 48 h, read-out: Log10 LC50 (converted)",> 100 µM
same,GI50,HL-60(TB); read-out: Log10 GI50 (converted),< 0.01 µM
same,CC50,HL-60(TB); read-out: Log10 LC50 (converted),> 100 µM
same,GI50,"SW-620; Homo sapiens, SW-620, 48 h, read-out: Log10 GI50 (converted)",< 0.01 µM
same,CC50,"SW-620; Homo sapiens, SW-620, 48 h, read-out: Log10 LC50 (converted)",> 100 µM
same,Log10 TGI,"SW-620; SW-620 (Colon Cancer), PG=0, 48 hour incubation",>−4.00 molar
same,Log10 TGI,"COLO 205; COLO 205 (Colon Cancer), PG=0, 48 hour incubation",−7.38 molar
same,GI50,"COLO 205; Homo sapiens, COLO 205, 48 h, read-out: Log10 GI50 (converted)",< 0.01 µM
same,CC50,"COLO 205; Homo sapiens, COLO 205, 48 h, read-out: Log10 LC50 (converted)",26.3 µM
same,GI50,"OVCAR-4; Homo sapiens, OVCAR-4, 48 h, read-out: Log10 GI50 (converted)",1.58 µM
same,CC50,"OVCAR-4; Homo sapiens, OVCAR-4, 48 h, read-out: Log10 LC50 (converted)",> 100 µM
same,Log10 TGI,"OVCAR-4; OVCAR-4 (Ovarian), PG=0, 48 hour incubation",−4.21 molar
same,GI50,"MDA-MB-231/ATCC; Homo sapiens, MDA-MB-231, 48 h, read-out: Log10 GI50 (converted)",0.0282 µM
same,CC50,"MDA-MB-231/ATCC; Homo sapiens, MDA-MB-231, 48 h, read-out: Log10 LC50 (converted)",23.4 µM
same,Log10 TGI,"MDA-MB-231/ATCC; MDA-MB-231/ATCC (Breast Cancer), PG=0, 48 hour incubation",−6.13 molar
same,Log10 TGI,"HT29; HT29 (Colon Cancer), PG=0, 48 hour incubation",−4.95 molar
same,GI50,"HT29; Homo sapiens, HT-29, 48 h, read-out: Log10 GI50 (converted)",< 0.01 µM
same,CC50,"HT29; Homo sapiens, HT-29, 48 h, read-out: Log10 LC50 (converted)",33.1 µM
